Assay results taken from patent US6352989B1, “Nitrogenous heterocyclic derivatives and medicine thereof” (Eisai Co., Ltd., priority 1998, dated 2002).

Legend:
[1] = molecular target: PDE4D (Homo sapiens, UniProt Q08499); test: Inhibitory action on PDE4 (homogenate of BHK cells expressing cloned human PDE4D, [3H]-cAMP hydrolysis); format: biochemical; conditions: average in triplicate measurements; 1 μM [3H]-cAMP substrate; read-out: PDE4 Inhibition IC50
Method: Inhibitory Action on PDE4: PDE4D was cloned from human placental mRNA by PCR techniques, and cDNA after an alternative spliced site (Mol. Cell. Biol., 13, 6558, 1993) was expressed in BHK cells. Two clones of BHK cells expressing PDE4 activity which was 100 or more times as high as endogenous PDE4 activity were obtained, and one of the clones was cultured in a large amount, and its homogenate was used as an enzyme source of PDE4.
50 mM Tris-HCl (pH 8.0), 0.1 mM EGTA, 0.1 mM MgCl2, 1 μM [^3H]-cGMP (100,000 dpm/tube) or 1 μM [^3H]-cAMP (100,000 dpm/tube) was added to the above homogenate, and 0.2 ml of the mixture was incubated at 30° C. for 10 to 20 minutes in the presence or absence of a test compound. The enzyme reaction was stopped by incubating the mixture at 95° C. for 1.5 minutes, and after cooling on ice, 50 μl nucleotidase (10 units/ml) was added thereto and incubated at 30° C. for 10 minutes. 550 μl of AG1-X2 resin slurry (H2O:resin=2:1) was added to the reaction mixture, then left at 4° C. for 10 minutes and centrifuged (10,000 rpm, 2.5 minutes, 4° C.), and 450 μl of the supernatant was measured for radioactivity.
The activity was compared in terms of IC50 (concentration of the compound at which 50% of the enzyme activity is inhibited) IC50 was determined by plotting of the concentration of cAMP as the substrate and the concentration of the compound on logarithmic graph paper. The results shown in Table 1 are the average in triplicate measurements. The test compound was first dissolved in DMSO and then diluted with the above-mentioned buffer for use.

[2] = tested on: ZDP rat; test: Blood sugar-depressing action (ZDP rat); format: in vivo; conditions: for Blood sugar level, Before the administration: baseline before the administration of the test compound; for Blood sugar level, After the continuous administration for 1 week / Glucose level relative to that (=100%) before the administration, after the continuous administration for 1 week: oral, once every day for 1 week; for Blood sugar level, After the continuous administration for 1 week: 4 hours fast, tail vein blood; for Glucose level relative to that (=100%) before the administration, after the continuous administration for 1 week: value in parentheses
Method: Blood Sugar-Depressing Action (ZDP rat): A test compound was suspended in 0.5% MC, and the suspension was orally administered to an animal once every day for 1 week. After the administration, the rat was allowed to fast for 4 hours, and blood was collected from the tail vein, added immediately to 0.6 M HClO4 (0.6 M HClO4=1:9), and centrifuged to give a supernatant which was then measured for glucose level by Glocose CII Test Wako Kit (Wako Pure Chemical Industries, Ltd., JP). In the table, values in the parentheses under the blood sugar level (mg/dl) indicate glucose levels relative to those (=100%) before the administration of the test compound.

[3] = tested on: TNFα production; test: Inhibitory action on production of TNFα (LPS-stimulated human peripheral blood monocyte fraction, ELISA); format: cell-based; conditions: LPS-stimulated human peripheral blood monocytes, incubation 18 to 24 hours, read-out: TNF^α Inhibition IC50
Method: Inhibitory Action on Production of TNF: Human peripheral blood was collected in […] and centrifuged (1000 rpm, 10 minutes, at room temperature) to remove platelet rich plasma, and then the blood sample was mixed with Hank's balanced salt solution (HBSS) (with an equal volume to the removed plasma) containing penicillin (100 units/ml) and streptomycin (100 μg/ml) (referred to hereinafter as “p, s”). Ficoll-paque (Pharmacia) with an volume of 3/5 relative to the sample mixture was layered on the lower layer and centrifuged at 1500 rpm for 30 minutes at room temperature, and the monocyte nucleus fraction was collected. The resulting monocyte nucleus fraction was washed twice with p, s-containing HBSS and prepared as a cell float at a cell density of 2-4×10^6 cells/ml in p, s-containing RPMI1640 (containing 10% FCS). 400 μl of the prepared cell float was added to a 48-wells culture plate, and 50 μl LPS (100 ng/ml of saline) and 50 μl of each of compound solutions prepared at various concentrations were added to each well, followed by incubation at 37° C. in a 5% CO2 mixed air. After incubation for 18 to 24 hours, the incubated buffer was separated, and TNFα thus released from the cells was measured by an ELISA kit (Amasham).
The inhibitory action of the compound on production of TNFα was determined in terms of IC50 by plotting the concentrations of the compound and the amount of produced TNFα (%relative to the control) on semilogarithmic graph paper. The control (100%) for the amount of TNFα produced was obtained by subtracting the amount of TNFα produced in the (basal) group where neither LPS nor the compound was added, from the amount of TNFα produced in the (control) group where the compound was not added.
After the compound was dissolved at a concentration of […] in DMSO solution containing the compound at a concentration which was 1000 times as high as the final concentration, and then the solution was diluted with RPMI1640 containing 10% FCS and p,s, to prepare a solution containing the compound at a concentration which was 10 times as high as the final concentration. In place of the compound solution, RPMI1640 (1% DMSO, 10% FCS) containing p, s was added to the control group basal group. In place of the LPS solution, physiological saline was added to the basal group.

PDE4D, sequence (Q08499 303-809 limits assumed): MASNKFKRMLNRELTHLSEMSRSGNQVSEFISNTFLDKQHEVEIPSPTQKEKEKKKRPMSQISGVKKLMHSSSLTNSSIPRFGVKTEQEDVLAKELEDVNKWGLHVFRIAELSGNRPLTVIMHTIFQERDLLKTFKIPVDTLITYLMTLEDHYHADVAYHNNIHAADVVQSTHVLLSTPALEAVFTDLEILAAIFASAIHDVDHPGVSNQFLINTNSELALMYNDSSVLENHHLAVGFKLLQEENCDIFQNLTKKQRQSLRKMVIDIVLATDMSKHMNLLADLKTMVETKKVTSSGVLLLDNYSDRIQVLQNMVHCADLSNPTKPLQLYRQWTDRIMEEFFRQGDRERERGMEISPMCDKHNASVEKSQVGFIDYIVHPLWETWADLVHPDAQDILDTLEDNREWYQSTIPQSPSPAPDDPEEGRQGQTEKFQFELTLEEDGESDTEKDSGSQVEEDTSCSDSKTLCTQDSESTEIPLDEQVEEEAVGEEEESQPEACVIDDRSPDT

IC50 [1] [nM]	melting point [°C]	IC50 [3] [nM]	Structure (SMILES)	Blood sugar level, Before the administration [2] [mg/dL]	Blood sugar level, After the continuous administration for 1 week [2] [mg/dL]	Glucose level relative to that (=100%) before the administration, after the continuous administration for 1 week [2]
1.9	188 to 190		CCOc1cc2nc(NC)nc(-c3cccc(-c4cncc([S+](C)[O-])c4)c3)c2cc1OCC (centres unmarked) [Example 62]	478.6 ± 24.0	369.1 ± 37.3	(77.1) %
1.1	218 to 220	1.7	CNc1nc(-c2cccc(-c3cnc4ccccc4c3)c2)c2cc(OC)c(OC)cc2n1 [Example 49, 6,7-Dimethoxy-2-methylamino-4-[3-(3-quinolyl)phenyl]quinazoline]			
0.6	200 to 202		CNc1nc(-c2cccc(-c3cncc(-c4ccccc4)c3)c2)c2cc(OC)c(OC)cc2n1 [Example 63, 6,7-Dimethoxy-2-methylamino-4-[3-(5-phenyl-3-pyridyl)phenyl]quinazoline]			
1.7	195 to 197		CNc1nc(-c2cccc(-c3cccc(SC)c3)c2)c2cc(OC)c(OC)cc2n1 [Example 54, 6,7-Dimethoxy-2-methylamino-4-(3′-methylthio-3-biphenylyl)quinazoline]			
0.63	153 to 155		CNc1nc(-c2cccc(-c3ccc([S+](C)[O-])cc3)c2)c2cc(OC)c(OC)cc2n1 (centres unmarked) [Example 53, 6,7-Dimethoxy-2-methylamino-4-(4′-methylsulfinyl-3-biphenylyl)quinazoline]			
0.6	105 to 107		CCOc1cc2nc(NC)nc(-c3cccc(-c4cncc(SC)c4)c3)c2cc1OCC [Example 61, 6,7-Diethoxy-2-methylamino-4-[3-(methylthio-3-pyridyl)phenyl]quinazoline]			
3.2	181 to 183		CNc1nc(-c2cccc(-c3cncc4ccccc34)c2)c2cc(OC)c(OC)cc2n1 [Example 51, 6,7-Dimethoxy-2-methylamino-4-[3-(4-isoquinolyl)phenyl]quinazoline]			
0.22	157 to 159		CCOc1cc2nc(NC)nc(-c3cccc(-c4cnc5ccccc5c4)c3)c2cc1OCC [Example 60, 6,7-Diethoxy-2-methylamino-4-[3-(3-quinolyl)phenyl]quinazoline]			

The next lines start with the compound.

Structure (SMILES)	IC50 [1] [nM]	melting point [°C]	IC50 [3] [nM]	Blood sugar level, Before the administration [2] [mg/dL]	Blood sugar level, After the continuous administration for 1 week [2] [mg/dL]	Glucose level relative to that (=100%) before the administration, after the continuous administration for 1 week [2]
CNc1nc(-c2cccc(NC(=O)c3ccc(OC)c(OC)c3)c2)c2cc(OC)c(OC)cc2n1 [Example 14, 6,7-Dimethoxy-4-[3-(3,4-dimethoxybenzoylamino)phenyl]-2-methylaminoquinazoline]	4	128 to 130	1.6			
CNc1nc(-c2cccc(NC(=O)c3ccc(OC)c(Cl)c3)c2)c2cc(OC)c(OC)cc2n1 [Example 18, 4-[3-(3-Chloro-4-methoxybenzoylamino)phenyl]-6,7-dimethoxy-2-methylaminoquinazoline]	1.4	130 to 132	3.3			
CNc1nc(-c2cccc(N3Cc4ccccc4C3=O)c2)c2cc(OC)c(OC)cc2n1 [Example 45, 6,7-Dimethoxy-4-[3-(1-oxo-2-isoindolynyl)phenyl]-2-methylaminoquinazoline]	0.72	230 to 232				
CNc1nc(-c2cccc(NC(=O)c3ccc(OC)c(OC4CCCC4)c3)c2)c2cc(OC)c(OC)cc2n1 [Example 17, 4-[3-(3-Cyclopentyloxy-4-methoxybenzoylamino)phenyl]-6,7-dimethoxy-2-methylaminoquinazoline]	4.2	129 to 131				
CNc1ccc(C(=O)Nc2cccc(-c3nc(NC)nc4cc(OC)c(OC)cc34)c2)cn1 [Example 32, 6,7-Dimethoxy-2-methylamino-4-[3-(6-methylaminonicotinoylamino)phenyl]quinazoline]	2.6	193 to 195	2.3	478.5 ± 7.3	349.3 ± 44.3	(73.0) %
CNc1nc(-c2cccc(NC(=O)c3ccncc3)c2)c2cc(OC)c(OC)cc2n1 [Example 2, 6,7-Dimethoxy-2-methylamino-4-[3-(4-pyridinecarbonylamino)phenyl]quinazoline]	8.5	228 to 230	4.7			
CNc1nc(-c2cccc(NC(=O)c3ccc(N(C)C)nc3)c2)c2cc(OC)c(OC)cc2n1 [Example 30, 6,7-Dimethoxy-4-[3-(6-dimethylaminonicotinoylamino)phenyl]-2-methylaminoquinazoline]	2.6	149 to 151				
